Where two headings read alike, the source gives them in different places.
Experiments:
MCF7 = assay: Toxicity of NAC-MTN vs CD-MTN and MTN, MTT (Example 9, EX042105); type: cell-based, human
Procedure: FIG. 4. […] The relative toxicity of NAC-MTN was compared with MTN and CD-MTN in four cell lines, MCF7(breast cancer), COS7green monkey kidney (SV40 transformed), 3T3 (mouse fibroblast), and BHK21(hamster kidney). Cells were treated with identical amounts of MTN formulated as either NAC-MTN, MTN only, or poly-beta-cyclodextrin-sulfylbutylether(CD-MTN). After an incubation period, cell viability was assayed with MTT assay. The differences in toxicity between NAC-MTN and MTN or NAC-MTN and CD-MTN are shown as % difference. Greater percentage difference correlates to more reduction in relative NAC-MTN toxicity.
MCF7, COS7, 3T3, and BHK21 cells were plated out in duplicate rows of equivalent cell density in 100ul final volume. Initial cell densities were 2000 cells/well.
Preparing NAC-MTN, CD-MTN, and MTN only. Combined 180 ul of 0.05 mg/ml MTN with […] 0.1 mg/ml herring sperm genomic DNA (HSGDNA, Promega), 1500 ul of 2× DMEM media containing 20% FBS to give 3.0 ml final volume and 12% final drug loading in the dsDNA. For MTN only, 180 ul of MTN was combined with 1320 ul H2O and 1500 ul 2× DMEM. […]
Aspirated media in plate and replaced with 50 ul of 0.5 mg/ml MTT in 1× media, incubated 3 hours, aspirated, air dried 5 min and dissolved in 100 ul of isopropyl, read OD at A570. […]

[1] = In vivo MTN distribution in organs after single i.v. dose (Example 15, EX102005); design: species or system mice; settings: iv, 0.075 mg MTN per mouse i.v.
Procedure: Procedure: Prior to formulation of MTN with carrier, the DNA carrier was standardized and assayed for loading limits with MTN by absorbance spectrometry. […] Herring sperm […] […] One milliliter (1 ml) of each homogenate was then transferred to a 1.7 ml centrifuge tube and centrifuged for 10 min at 10000 rcf. Supernatants were removed and fluorescence of 0.3 ml of samples was read at 620/680 nm s=50. […] Total MTN was calculated by converting fluorescence data to mg/ml MTN using a MTN standard curve. The mg/ml MTN was then multiplied by total vol. homogenate to obtain total MTN per organ.

NIH3T3 = assay: Effect of plating time on uptake of NAC-MTN and MTN, fluorescence (Example 11); type: cell-based, mouse; settings: cells treated <1 hour after plating
Procedure: The effect of plating time on the differential rates of uptake between NAC-MTN and MTN were assayed in cells treated <1 hour and 24 hours after plating.
On day 1, MCF7, COS7, 3T3, and BHK21 cells were plated out in a standard tissue culture plate. After incubation of 20 minutes samples were added to cells in rows A, C, E, and G. Cells were incubated at 37C in a standard atmosphere of 5%CO2.
On day 2, samples were added to rows D, F, and H and the fluorescence was obtained EX620/EM680 S=80. Samples were removed from A,C,E and G, replaced with media and fluorescence read again. On day 2 observed significant drug toxicity in cells of rows A,C, E, G. Sample addition was postponed in row B since MCF7 were not yet confluent.
On day 3, added samples to cells in row B containing confluent MCF7's, removed samples from rows D, F, and H replaced with media and read fluorescence.
Fluorescence data from cells taken after removal of media was used to quantitate total MTN retained in the cells. Fluorescence data were converted to mg/ml MTN using a standard curve prepared with free MTN or NAC-MTN.
The percentage difference in fluorescence between cells treated with NAC-MTN or MTN alone was used to compare relative drug uptake.

[2] = in vivo, iv
Procedure: Differential targeting and distribution of NAC-MTN or MTN in major organs of the mouse. NAC-MTN or MTN was administered intravenously to mice and detected in major organs after 24 hours. […] Total MTN in tissues was quantified by MTN fluorescence, normalized against total tissue weight, and reported as MTN mg/g tissue.
Mice n=2, were injected i.v. with repeated dose of either NAC-MTN or MTN alone. MTN administered was the same for each mouse.
A 0.4 ml volume of each NAC-MTN or MTN formulation was prepared for injection in HBSS or H2O (Hanks Buffered Saline, Sigma-Aldrich) as indicated below. For NAC-MTN injection, 45 ul 10 mg/ml MTN was diluted first in 325 ul of HBSS solution, then 180 ul of herring sperm DNA (HSDNA, 50 mg/ml stock neutralized, 0.2 um filtered) was added to give a turquoise blue color. […] In MTN injection, 45 ul 10 mg/ml MTN was diluted in 385 ul of H2O.
On day 1, white mice, n=2, 24 g each, were tail vein injected by a micro-catheter with 0.16 ml at 14:50 or 0.15 ml at 15:30, respectively of either NAC-MTN or MTN. A second injection was followed at 17:00 and 16:50 of 0.2 ml each of NAC-MTN or MTN. To quantify total MTN retained, mouse urine was collected after 1st and 2nd injection. Total MTN was assayed in mouse urine immediately after 1st injection and second injection by reading MTN fluorescence 620/680 s=50 of a 0.2 ml sample in a styrene well, bottom read. […] A third dose of 0.2 ml was given the next morning, 22 hours after 1st injection (day 2), of either NAC-MTN or MTN. […] Twenty four hours after first injection (day 2), mice were sacrificed and MTN assayed in major organs. The liver, kidneys, heart, and lung were homogenized at high speed 50,000 rpm, and treated with 1% SDS (sodium dodecyl sulfate). The homogenates were frozen twice and centrifuged for 30 minutes at 14000 rcf.

[3] = DNA addition method: NAC complexed vs unbound MTN in mouse urine (Example 17)
Procedure: To determine if NAC-MTN was excreted in urine as a complex, MTN fluorescence due to unbound NAC was assayed by an addition method. DNA was added to urine from both groups and subsequent change in fluorescence was measured.

## O=C1c2c(O)ccc(O)c2C(=O)c2c(NCCNCCO)ccc(NCCNCCO)c21 [MTN, mitoxantrone]
MCF7; 2 uM final MTN, MTT 48 hours after adding samples
  % tox. relative to media only: 48.39%
MCF7; after 24 hours, 2 uM MTN
  toxic effect: no toxic effect
[1]; heart, read-out: Density of MTN in tissue: Heart
  concentration at 1 h: 96000 ng/g
[1]; kidney, read-out: Density of MTN in tissue: Kidney
  concentration at 1 h: 49000 ng/g
[1]; liver, read-out: Density of MTN in tissue: Liver
  concentration at 1 h: 10000 ng/g
[1]; lung, read-out: Density of MTN in tissue: Lung
  concentration at 1 h: 43000 ng/g
NIH3T3
  FLUOR (MTN fluorescence in cells): 18530
[2]
  toxic effects in mouse: Neither mouse showed any toxic effects
[3]; Elapsed Time 2.5 hr
  % Change Fluor. on DNA addition to urine: 83%
[3]; Elapsed Time 5 hr
  % Change Fluor. on DNA addition to urine: 66%
[3]; Elapsed Time 8 hr
  % Change Fluor. on DNA addition to urine: 71%
